Where two headings read alike, the source gives them in different places.
Tests used:
HMVEC-c cells = test: cAMP accumulation in HMVEC-c cells; type: cell-based, human
Excerpt: Primary cultures of human cardiac microvascular endothelial cells (HMVEC-c) were obtained from Cambrex (Walkersville, Md.), and cultured using EGM™-2 MV growth medium (Cambrex). HMVEC-c from passages 2 to 5 were used. Measurement of cAMP accumulation.

[1] = tested on: eEPC adhesion to MCEC-1 cells; test: eEPC adhesion to MCEC-1 cells under static conditions; type: cell-based, mouse
[2] = tested on: eEPC retention in isolated hearts; test: eEPC retention in isolated mouse hearts (Langendorff perfusion)
Procedure: Isolated mouse heart model. Six male C57Bl/6 mice (Jackson Laboratory, Bar Harbor, Me.) at age of 6-8 weeks were used. The study was conducted in accordance with the Guide for the Care and Use of Laboratory Animals as adopted and promulgated by the U.S. National Institutes of Health. Hearts were rapidly removed from mice anesthetized with inhalation of isoflurane. The aorta was cannulated and connected to a Langendorff apparatus. […] After a 30 min stabilization period, hearts were perfused with 1.5 mmol/L FITC-conjugated Helix pomatia lectin (Sigma) for 10 min to label endothelial cells of perfused vessels followed by a 10 min washing period with KH buffer. […] After washing with KH buffer for 10 min to remove unbound eEPCs, hearts were dissected, and placed on a microscopic stage. Retention of eEPCs in hearts was analyzed by taking 10 random images of the left ventricle using epifluorescence microscopy (20× objective). Area of EPC-emitted fluorescence was measured using NIH ImageJ software and normalized to the area of vascular endothelium stained with FITC-lectin.

A1 adenosine receptor [3] = target: T1, A1 adenosine receptor (Mus musculus, UniProt Q60612); conditions: cited from earlier work; for Ki: read-out: Affinity or potency at A1, mouse (m)
T1 sequence (Q60612 1-326): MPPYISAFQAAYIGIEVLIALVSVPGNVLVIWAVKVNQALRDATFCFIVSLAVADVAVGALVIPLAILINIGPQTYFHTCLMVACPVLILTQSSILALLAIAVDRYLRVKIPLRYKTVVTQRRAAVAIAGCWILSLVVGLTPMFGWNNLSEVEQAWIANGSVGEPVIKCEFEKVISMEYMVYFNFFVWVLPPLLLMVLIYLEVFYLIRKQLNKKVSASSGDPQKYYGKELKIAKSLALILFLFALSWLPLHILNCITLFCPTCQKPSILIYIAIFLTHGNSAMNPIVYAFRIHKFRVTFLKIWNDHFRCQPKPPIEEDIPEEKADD

A1 receptors [4] = target: T2, A1 receptors (Mus musculus, UniProt Q60612); test: Inhibition of forskolin-induced cAMP accumulation in MCEC-1 cells
T2 sequence (Q60612 1-326): T1 sequence (Q60612 1-326)

A1 receptors [5] = target: T2, A1 receptors; test: Inhibition of forskolin-stimulated cAMP accumulation in mouse eEPCs; conditions: for Affinity or potency at A1, mouse (m), current study, log / Affinity or potency (Ki, KD, KB, IC50 or EC50) at A1, mouse (m), current study: data from the current study (no reference); for Affinity or potency (Ki, KD, KB, IC50 or EC50) at A1, mouse (m), current study: 95% CI in parentheses
A2B adenosine receptor [6] = target: T3, A2B adenosine receptor (Mus musculus, UniProt Q60614); conditions: [9] Kreckler et al. (2006), transfected HEK 293, radioligand [3H]MRS1754, cited from earlier work
T3 sequence (Q60614 1-332): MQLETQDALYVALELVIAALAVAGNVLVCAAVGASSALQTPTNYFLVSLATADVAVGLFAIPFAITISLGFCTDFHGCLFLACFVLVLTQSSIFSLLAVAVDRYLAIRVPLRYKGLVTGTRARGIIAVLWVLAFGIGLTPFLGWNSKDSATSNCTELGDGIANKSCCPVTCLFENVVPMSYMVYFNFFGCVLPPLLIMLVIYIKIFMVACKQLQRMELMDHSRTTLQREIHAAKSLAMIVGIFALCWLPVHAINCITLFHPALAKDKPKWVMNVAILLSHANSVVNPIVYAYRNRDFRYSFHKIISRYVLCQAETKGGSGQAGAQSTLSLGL

A2A adenosine receptor [7] = target: A2A adenosine receptor (Mus musculus, UniProt Q60613); conditions: [9] Kreckler et al. (2006), transfected HEK 293, radioligand [125I]ZM241385, cited from earlier work
eEPCs = test: cAMP accumulation in mouse eEPCs (forskolin, NECA)
A1 adenosine receptor [8] = target: T4, A1 adenosine receptor (Homo sapiens, UniProt P30542); conditions: [14] Feoktistov et al, 2001, transfected CHO cells, radioligand [3H]DPCPX, cited from earlier work
T4 sequence (P30542 1-326): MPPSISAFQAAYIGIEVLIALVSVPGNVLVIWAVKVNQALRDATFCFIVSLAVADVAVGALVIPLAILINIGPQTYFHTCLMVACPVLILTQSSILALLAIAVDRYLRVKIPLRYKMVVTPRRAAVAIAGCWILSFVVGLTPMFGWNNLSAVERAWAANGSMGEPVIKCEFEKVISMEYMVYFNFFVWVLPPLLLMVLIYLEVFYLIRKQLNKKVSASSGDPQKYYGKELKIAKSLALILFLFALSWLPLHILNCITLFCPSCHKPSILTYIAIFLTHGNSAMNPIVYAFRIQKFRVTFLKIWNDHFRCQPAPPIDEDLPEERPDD

A2A adenosine receptor [9] = target: A2A adenosine receptor (Homo sapiens, UniProt P29274); conditions: [14] Feoktistov et al, 2001, transfected CHO cells, radioligand [3H]NECA, cited from earlier work
A2B adenosine receptor [10] = target: T5, A2B adenosine receptor (Homo sapiens, UniProt P29275); conditions: [14] Feoktistov et al, 2001, transfected HEK 293 or HEL cells, radioligand [3H]ZM241685, cited from earlier work
T5 sequence (P29275 1-332): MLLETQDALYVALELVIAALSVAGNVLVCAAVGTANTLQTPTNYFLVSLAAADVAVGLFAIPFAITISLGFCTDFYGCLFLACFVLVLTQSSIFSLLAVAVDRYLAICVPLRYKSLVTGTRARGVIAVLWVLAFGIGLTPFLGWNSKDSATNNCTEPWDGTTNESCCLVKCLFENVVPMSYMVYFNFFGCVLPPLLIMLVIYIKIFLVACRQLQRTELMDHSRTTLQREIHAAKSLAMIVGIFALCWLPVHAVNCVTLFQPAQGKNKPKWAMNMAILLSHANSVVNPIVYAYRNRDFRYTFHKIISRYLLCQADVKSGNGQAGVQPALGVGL

A2B receptors = target: T6, A2B receptors (Mus musculus, UniProt Q60614); test: NECA-stimulated cAMP accumulation in MCEC-1 cells
T6 sequence (Q60614 1-332): T3 sequence (Q60614 1-332)

[11] = [6] Maemoto et al. (1997), brain cortex, radioligand [3H]DPCPX
[12] = [9] Kreckler et al. (2006), transfected HEK 293, radioligand [125I]I-AB-MECA

Chain of A2A adenosine receptor (Mus musculus, UniProt Q60613) (Q60613 whole entry): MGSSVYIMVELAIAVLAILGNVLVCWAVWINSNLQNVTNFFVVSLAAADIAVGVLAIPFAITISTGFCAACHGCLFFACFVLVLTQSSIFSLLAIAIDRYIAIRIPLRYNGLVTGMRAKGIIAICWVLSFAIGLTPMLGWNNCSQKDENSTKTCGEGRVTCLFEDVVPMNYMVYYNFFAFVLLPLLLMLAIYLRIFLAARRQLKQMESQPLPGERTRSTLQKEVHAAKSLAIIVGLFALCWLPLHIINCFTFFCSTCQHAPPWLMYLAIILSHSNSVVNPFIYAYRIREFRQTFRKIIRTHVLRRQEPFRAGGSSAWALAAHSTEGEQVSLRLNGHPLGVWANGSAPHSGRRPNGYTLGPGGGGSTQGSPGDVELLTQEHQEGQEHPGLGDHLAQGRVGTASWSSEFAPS
Chain of A2A adenosine receptor (Homo sapiens, UniProt P29274) (P29274 whole entry): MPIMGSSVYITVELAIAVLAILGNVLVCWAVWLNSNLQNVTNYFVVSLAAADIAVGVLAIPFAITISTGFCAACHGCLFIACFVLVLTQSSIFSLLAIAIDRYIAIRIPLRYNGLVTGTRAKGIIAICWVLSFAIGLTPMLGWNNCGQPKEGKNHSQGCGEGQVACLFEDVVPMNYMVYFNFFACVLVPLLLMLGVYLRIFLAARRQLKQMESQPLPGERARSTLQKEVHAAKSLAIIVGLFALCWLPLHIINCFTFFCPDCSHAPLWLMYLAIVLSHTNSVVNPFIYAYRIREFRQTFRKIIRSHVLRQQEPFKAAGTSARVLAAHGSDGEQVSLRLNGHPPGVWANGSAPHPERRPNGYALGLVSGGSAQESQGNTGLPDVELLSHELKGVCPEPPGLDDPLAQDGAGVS

CCNC(=O)[C@H]1O[C@@H](n2cnc3c(N)nc(NCCc4ccc(CCC(=O)O)cc4)nc32)[C@H](O)[C@@H]1O [CGS21680, 4-((N-ethyl-5′-carbamoyladenos-2-yl)-aminoethyl)-phenyl-propionic acid]
Effect on cAMP accumulation in HMVEC-c (HMVEC-c cells): no significant effect
Effect on eEPC adhesion ([1]; 30 minutes): virtually no effect
Effect on eEPC retention ([2]; 3 nmol/L, compared with 10 μmol/L adenosine): considerably less effect
Affinity or potency at A1, mouse (m), log (A1 adenosine receptor [3]; [11]): 28,200); −4.85 [6] log mol/L

OC[C@H]1O[C@@H](n2cnc3c(NC4CCCC4)ncnc32)[C@H](O)[C@@H]1O [CPA, N^6-cyclopentyladenosine]
eEPC adhesion ([1]; 10 nmol/L, 30 minutes, basal 4.5±0.3%): 7.4±0.6%
Affinity or potency at A1, mouse (m), log (A1 adenosine receptor [3]; [11]): −8.5 log mol/L
Ki (A1 adenosine receptor [3]; [11]): 3.3 nM
Concentrations at which inhibition was reversed (A1 receptors [4]; MCEC-1, presumably stimulation of A2B receptors): > 100 nmol/L
Effect on forskolin-stimulated adenylate cyclase in MCEC-1 (A1 receptors [4]; selective (low nanomolar) concentrations, 1 μmol/L forskolin): inhibited forskolin-stimulated adenylate cyclase
EC50 (A1 receptors [5]): 1.3 nM
Affinity or potency at A1, mouse (m), current study, log (A1 receptors [5]): −8.9 log mol/L
Affinity or potency (Ki, KD, KB, IC50 or EC50) at A1, mouse (m), current study (A1 receptors [5]): 1.2 (0.6-2.4) nmol/L

CCCn1c(=O)c2[nH]c(C3CCCC3)nc2n(CCC)c1=O [DPCPX, 8-cyclopentyl-1,3-dipropylxanthine]
Affinity or potency at A2B, mouse (m), log (A2B adenosine receptor [6]): −7.1 log mol/L
Ki (A2B adenosine receptor [6]; read-out: Affinity or potency at A2B, mouse (m)): 86 nM
Affinity or potency at A1, mouse (m), log (A1 adenosine receptor [3]; [11]): −9.3 log mol/L
Affinity or potency at A1, mouse (m), log (A1 adenosine receptor [3]; [12]): −8.8 log mol/L
Ki (A1 adenosine receptor [3]; [11]): 0.4 nM
Ki (A1 adenosine receptor [3]; [12]): 1.5 nM
Affinity or potency at A2A, mouse (m), log (A2A adenosine receptor [7]): −6.2 log mol/L
Ki (A2A adenosine receptor [7]; read-out: Affinity or potency at A2A, mouse (m)): 598 nM
EC50 (A1 receptors [5]): 1.5 nM
Affinity or potency at A1, mouse (m), current study, log (A1 receptors [5]): −8.8 log mol/L

C=C[C@@]1(C)CC(=O)[C@]2(O)[C@@]3(C)[C@@H](O)CCC(C)(C)[C@@H]3[C@H](O)[C@H](OC(C)=O)[C@@]2(C)O1 [Forskolin, forskolin]
EC50 (eEPCs; Mus musculus, read-out: EC50, increase of cAMP levels in eEPCs): 1100 nM
cAMP levels in eEPCs (eEPCs; maximal increase from basal 4.3±0.7): 35±2 pmol per well

CC(C)Cn1c(=O)[nH]c(=O)c2[nH]c(N3CCCC3)nc21 [IPDX, 3-isobutyl-8-pyrrolidinoxanthine]
IC50 ([1]; Mus musculus, read-out: IC50, inhibition of NECA-induced eEPC adhesion): 1600 nM
Affinity or potency at A1, human (h), log (A1 adenosine receptor [8]): −4.6 log mol/L
Ki (A1 adenosine receptor [8]; read-out: Affinity or potency at A1, human (h)): 24000 nM
Affinity or potency at A2A, human (h), log (A2A adenosine receptor [9]): −4.4 log mol/L
Ki (A2A adenosine receptor [9]; read-out: Affinity or potency at A2A, human (h)): 36000 nM
Affinity or potency at A2B, human (h), log (A2B adenosine receptor [10]): −6.2 log mol/L
Ki (A2B adenosine receptor [10]; read-out: Affinity or potency at A2B, human (h)): 625 nM
Kd (A2B receptors): 603 nM
Schild analysis slope (A2B receptors; NECA-induced cAMP accumulation in MCEC-1, simple competitive antagonism at A2B): 1.1
Affinity or potency at A2B, mouse (m), current study, log (A2B receptors; data from the current study (no reference)): −6.2 log mol/L
Affinity or potency (Ki, KD, KB, IC50 or EC50) at A2B, mouse (m), current study (A2B receptors; data from the current study (no reference), 95% CI in parentheses): 603 nM
Affinity or potency at A1, mouse (m), current study, log (A1 receptors [5]): 24,870); −4.6 log mol/L
Affinity or potency (Ki, KD, KB, IC50 or EC50) at A1, mouse (m), current study (A1 receptors [5]): m 20,000 (16,230- nmol/L

OC[C@H]1O[C@@H](n2cnc3c(O)ncnc32)[C@H](O)[C@@H]1O [inosine]
Effect on eEPC retention ([2]; 100 μmol/L): no effect

Fucoidan
Effect on NECA-dependent stimulation of eEPC adhesion ([1]; 10 μmol/L NECA): inhibited

Pertussis toxin
Effect on TNF-α-induced eEPC adhesion ([1]; eEPCs preincubated with pertussis toxin 12 hours): no effect
Effect on stimulation of adhesion induced by NECA ([1]; eEPCs preincubated with pertussis toxin 12 hours, 10 μmol/L NECA): significantly attenuated but did not completely block
Effect on ability of CPA to inhibit forskolin-stimulated adenylate cyclase (A1 receptors [5]; eEPCs preincubated with pertussis toxin for 12 hours): completely abrogated

— patent US20090136460A1 (VANDERBILT UNIVERSITY, priority 2007, published 2009)
